This is an account of results in patent US20120039844A1, “COMPOSITION AND USE OF N-ALPHA-METHYLHISTAMINE DIHYDROCHLORIDE FOR THE REDUCTION OF OXYGEN RADICAL FORMATION” (priority 2009, published 2012).

One data set concerns B16 melanoma cells. Description: i.v. injected B16 melanoma in mice (lung tumor weight, pulmonary metastatic foci). Type of data set: in vivo. To be noted: for tumor weight (wet lung weight at day 14) vs control mice: 24 hours before tumor cell inoculation, FIG. 4. The method, then:
The anti-tumor properties of N-α-MH on i.v. injected B16 melanoma cells in mice were evaluated. One of N-α-MH, HDC, and a positive control were administered to the mice 24 hours before tumor cell inoculation as described by Hellstrand et al., J. Immunol., vol. 145, pp 4365-4370. Macroscopically visible pulmonary metastatic foci were counted fourteen days after the tumor cell inoculation. The tumor weight is the wet weight at day 14 of lungs from mice injected with tumor cells on day 0 as described by Hellstrand et al., J. Immunol., vol. 145, pp 4365-4370.

The conditions of data set [1]: in the blood; cited from earlier work.
Data set [2] deals with human mononuclear phagocytes. Nature of the data set: fMLF-induced oxygen radical formation (respiratory burst) in mononuclear phagocytes. It counts as cell-based. To be noted: FIG. 1.
In a further data set the target is H2 receptor (Homo sapiens, UniProt P25021). To be noted: Saitoh et al., Gut 2002; cited from earlier work.
For data set [3], the system named is NK cells. Nature of the data set: Protection of NK cells from apoptosis inflicted by mononuclear phagocytes. Type of data set: cell-based, human. To be noted: FIG. 2. The method, then:
The ability of N-α-MH to protect NK cells from apoptosis inflicted by mononuclear phagocytes was evaluated. Cells were prepared as described by Hellstrand et al., J. Immunol., vol. 153, pp 4940-7, and mixtures of mononuclear phagocytes and NK cells were incubated overnight with HDC or N-α-MH at indicated final concentrations in 96-well microplates. Thereafter, cells were recovered and NK cells were analyzed for apoptosis (forward and side scatter) as described in Betten et al., J. Clin. Invest. Vol. 108, pp 1221-8 (hereby incorporated by reference in its entirety). FIG. 2 plots the results of six similar experiments.

For data set [4], the system named is NK cells. Description: CD69 expression on NK cells exposed to IL-2. It counts as cell-based. To be noted: with human recombinant IL-2 50 U/ml, overnight; FIG. 3. The method, then: Three separate experiments were performed as described above with the addition of human recombinant IL-2 (50 U/ml) during the overnight incubation. The experiments were initiated with the aim at clarifying whether N-α-MH synergizes with IL-2 to activate NK cells in a fashion similar to HDC. The activation of NK cells by IL-2 was measured as the capacity of these cells to express the cell surface activation antigen CD69 (See, generally Hellstrand et al. JI 1994).

The target of another data set is H1 receptors (Homo sapiens, UniProt P35367). To be noted: cited from earlier work.
H1 receptors, sequence (P35367 whole entry): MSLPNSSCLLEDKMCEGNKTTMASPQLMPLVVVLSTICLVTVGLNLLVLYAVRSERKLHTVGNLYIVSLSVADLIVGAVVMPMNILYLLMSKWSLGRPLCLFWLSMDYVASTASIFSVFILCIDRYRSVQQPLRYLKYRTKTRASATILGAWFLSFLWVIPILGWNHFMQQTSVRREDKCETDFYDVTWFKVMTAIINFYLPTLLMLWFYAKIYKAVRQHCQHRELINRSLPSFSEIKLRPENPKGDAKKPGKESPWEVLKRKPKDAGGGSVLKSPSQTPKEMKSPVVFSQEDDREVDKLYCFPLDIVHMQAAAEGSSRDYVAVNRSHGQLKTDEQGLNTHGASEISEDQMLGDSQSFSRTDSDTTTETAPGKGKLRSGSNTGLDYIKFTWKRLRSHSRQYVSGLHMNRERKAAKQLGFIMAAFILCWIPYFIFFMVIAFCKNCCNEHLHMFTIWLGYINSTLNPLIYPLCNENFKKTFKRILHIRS

H2 receptor, sequence (P25021 whole entry): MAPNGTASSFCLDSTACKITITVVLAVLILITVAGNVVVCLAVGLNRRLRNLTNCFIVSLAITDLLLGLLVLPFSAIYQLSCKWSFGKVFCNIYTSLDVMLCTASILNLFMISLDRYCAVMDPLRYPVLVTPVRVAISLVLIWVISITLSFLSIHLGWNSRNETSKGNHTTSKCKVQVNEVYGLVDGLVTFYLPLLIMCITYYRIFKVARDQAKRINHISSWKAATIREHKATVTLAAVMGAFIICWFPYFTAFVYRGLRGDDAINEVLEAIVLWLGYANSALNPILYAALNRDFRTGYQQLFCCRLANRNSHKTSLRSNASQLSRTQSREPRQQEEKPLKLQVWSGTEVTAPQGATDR

Regarding `Cl.Cl.NCCc1c[nH]cn1` [HDC, histamine dihydrochloride], the “tumor weight (wet lung weight at day 14) vs control mice” value in the data set with B16 melanoma cells (50 mg/kg) is recorded as “significantly reduced tumor weight”. In addition, the half life result in data set [1] was “five”.

As for `CNCCc1c[nH]cn1` [N-α-MH, N-alpha-methyl-histamine], the “inhibition of oxygen radical production” value in data set [2] (5 min preincubation, then fMLF) was “potent inhibitor of oxygen radical production”. Also, in data set [2] (in vitro), the “maximal response in terms of oxygen radical inhibition, compared with HDC” value is “at least comparable to HDC”. The “potency relative to HDC in reducing tumor weight in vivo” value in the data set on B16 melanoma cells (5 mg/kg N-α-MH equal to 50 mg/kg histamine) is “about 10 times”. Also, the “tumor weight (wet lung weight at day 14) vs control mice” value in the data set on B16 melanoma cells (5 mg/kg) and in the data set with B16 melanoma cells (50 mg/kg) was “significantly reduced tumor weight” in each case. The “extent of tumor reduction (lung metastases) compared with HDC at 50 mg/kg” value in the data set on B16 melanoma cells (5 mg/kg, 14 days after inoculation, FIG. 5) was “about equal”. In addition, the “number of melanoma lung metastases vs control mice” value in the data set on B16 melanoma cells (50 mg/kg, 14 days after inoculation, FIG. 5) is “significantly less lung metastases than control mice”. The “potency relative to HDC in reducing melanoma metastasis in vivo” value in the data set on B16 melanoma cells (FIG. 5) was “approximately 10 times”. Besides, the “potency relative to HDC in reducing tumor formation in vivo” value with B16 melanoma cells (mouse, in vivo) was “approximately 10 times”. In addition, the “potency in stimulating cAMP production via the H2 receptor, compared with histamine” value at H2 receptor was “significantly more potent than histamine”. In addition, in the data set on NK cells [3] (Homo sapiens, overnight incubation with mononuclear phagocytes, six experiments, read-out: ED50 for protection of NK cells), the EC50 is 2.2 µM. The “protection of NK cells from apoptosis, compared with HDC” value in the data set with NK cells [3] (in vitro) was “equally potent and effective at protecting NK cells from apoptosis as HDC”. In addition, the “expression of CD69 on NK cells” value in the data set with NK cells [4] is recorded as “synergized with IL-2 to induce expression of CD69 on NK cells”. In addition, the “activity at H1 receptors” value on H1 receptors is listed as “little or no activity at H1 receptors”.
